Data on 7 compounds can be found in patent publication US5591726A, “Heterocyclylalkyl diarylboron ester and thioester fungicidal agents” (American Cyanamid Company, priority 1994, dated 1997).

In one experiment the test system is Septoria nodorum. The experiment in a line: In vivo fungicidal evaluation, Wheat Septoria Nodorum (WSN). The note with it: 200 ppm foliar spray. The protocol: Test compounds are dissolved or suspended in acetone and diluted with deionized water containing about 0.05% TWEEN®20, a polyoxyethylene sorbitan monolaurate surfactant manufactured by Atlas Chemical Industries, to give a concentration of 200 ppm.
Host plants are sprayed with the test solution, dried and inoculated with fungi. When disease symptom development is optimal, the plants are rated for disease control according to the rating scale shown below. Each test contains inoculated treated plants, inoculated untreated plants and a reference standard. When more than one test is run, the data are averaged.
WSN Wheat Septoria Nodorum

The test system of a further experiment is Alternaria solani. The experiment in a line: In vivo fungicidal evaluation, Tomato Early Blight (TEB). Note: ranges in brackets are in %. The note with it: 200 ppm foliar spray. The protocol:
(§1) Test compounds are dissolved or suspended in acetone and diluted with deionized water containing about 0.05% TWEEN®20, a polyoxyethylene sorbitan monolaurate surfactant manufactured by Atlas Chemical Industries, to give a concentration of 200 ppm. Host plants are sprayed with the test solution, dried and inoculated with fungi. When disease symptom development is optimal, the plants are rated for disease control according to the rating scale shown below. Each test contains inoculated treated plants, inoculated untreated plants and a reference standard. When more than one test is run, the data are averaged. The data obtained are shown in Table I. |TEB Tomato Early Blight | Alternaria solani

Experiment [1] deals with Septoria nodorum (propiconazole-resistant and -sensitive strains). It is filed as cell-based. The note with it: EC50 resistant strain / EC50 sensitive strain, 50 to 54 hours.
The test system of experiment [2] is Ustilago avenae (triadimefon-resistant and -sensitive strains). It is filed as cell-based. The note with it: EC50 resistant strain / EC50 sensitive strain, 50 to 54 hours.
A further experiment deals with Botrytis cinerea. The experiment in a line: In vivo fungicidal evaluation, Pepper Botrytis (PB). Note: ranges in brackets are in %. As to conditions: 200 ppm foliar spray. Here is the method:
as §1, with “|PB Pepper Botrytis Botrytis cinerea” for “|TEB Tomato Early Blight | Alternaria solani”

The subject of experiment [3] is Fusarium oxysporum f. sp. cucumerinum. The experiment in a line: In vitro fungicidal evaluation, FUSOXC. Note: ranges in brackets are in %. It counts as cell-based. As to conditions: 25 ppm; 3-7 days at 21° C. The protocol: (§2) Test compounds are dissolved or suspended in acetone and dispersed into cell well plates containing a suspension of ground fungal mycelia/spores in a nutrient broth. Assay plates are incubated for 3-7 days at 21° C. Growth inhibition is measured visually and is rated using the following scale:
(§3) Untreated controls, solvent blanks and reference standards are included in each test.
(§4) Assay fungi include the plant pathogens, Pythium ultimum (PYTHUL); Rhizoctonia solani (RHIZSO); Fusarium oxysporum f. sp. cucumerinum (FUSOXC); and Pseudocercosporella herpotrichoides (PSDCHE).
(§5) When more than one test is run, the data are averaged. The compounds evaluated are reported by compound number given in Example 3.

For another experiment, the system named is Rhizoctonia solani. The experiment in a line: In vitro fungicidal evaluation, RHIZSO. Note: ranges in brackets are in %. It counts as cell-based. As to conditions: 25 ppm; 3-7 days at 21° C. The protocol:
as §2, §3, §4, §5

The subject of experiment [4] is Erysiphe graminis f. sp. tritici. Put plainly: In vivo fungicidal evaluation, Wheat Powdery Mildew (WPM). Note: ranges in brackets are in %. As to conditions: 200 ppm foliar spray. The protocol:
as §1, with “|WPM Wheat Powdery Mildew” for “|TEB Tomato Early Blight”, “Erysiphe graminis | f. sp. tritici” for “Alternaria solani”

The subject of another experiment is Plasmopara viticola. The experiment in a line: In vivo fungicidal evaluation, Grape Downy Mildew (GDM). Note: ranges in brackets are in %. The note with it: 200 ppm foliar spray. The protocol: as §1, with “|GDM Grape Downy Mildew” for “|TEB Tomato Early Blight”, “Plasmopara viticola” for “Alternaria solani”
A further experiment has as its system Cercospora beticola. Put plainly: In vivo fungicidal evaluation, Sugar Beet Cercospora (SBC). Note: ranges in brackets are in %. The note with it: 200 ppm foliar spray. The protocol: as §1, with “|SBC Sugar Beet Cercospora” for “|TEB Tomato Early Blight”, “Cercospora beticola” for “Alternaria solani”
Experiment [5] deals with Cladosporium cucumerinum (fenarimol-resistant and -sensitive strains). It is filed as cell-based. As to conditions: EC50 resistant strain / EC50 sensitive strain, 50 to 54 hours.
In a further experiment the test system is Pyricularia grisea. It is filed as in vivo. The note with it: Rice Blast; 200 ppm foliar spray.
For the next experiment, the system named is Venturia inaequalis. Put plainly: In vivo fungicidal evaluation, Apple Scab (AS). Note: ranges in brackets are in %. As to conditions: 200 ppm foliar spray. Here is the method: as §1, with “|AS Apple Scab Venturia inaequalis” for “|TEB Tomato Early Blight | Alternaria solani”
The next experiment concerns Pythium ultimum. Put plainly: In vitro fungicidal evaluation, PYTHUL. Note: ranges in brackets are in %. As to conditions: 25 ppm; 3-7 days at 21° C. It is filed as cell-based. Here is the method:
as §2, §3, §4, §5

Experiment [6] deals with Pseudocercosporella herpotrichoides. The experiment in a line: In vitro fungicidal evaluation, PSDCHE. Note: ranges in brackets are in %. It is filed as cell-based. As to conditions: 25 ppm; 3-7 days at 21° C. Here is the method: as §2, §3, §4, §5

As to `Fc1ccc(B(OC(Cn2ccnc2)c2ccc(Cl)cc2Cl)c2ccc(F)cc2)cc1` (centres unmarked) [Compound 1, 1-(2,4-Dichlorophenyl)-2-(imidazol-1-yl)ethyl bis(p-fluorophenyl)borinate], in the experiment with Septoria nodorum, the “Disease control rating, WSN” value is 0 (0). For the same compound, the “Disease control rating, TEB” value in the experiment on Alternaria solani is recorded as 4 (45-59). Besides, in experiment [1], the “Resistance Factor, Septoria nodorum” value is given as 1.2. The “Resistance Factor, Ustilago avenae” value in [2] turned out to be 2.6. Besides, the “Disease control rating, PB” value with Botrytis cinerea was 0 (0). The “Growth inhibition rating, FUSOXC” value in [3] is on record as 5 (60-89). In addition, the “Growth inhibition rating, RHIZSO” value in the experiment on Rhizoctonia solani is listed as 7 (90-99). In addition, the “Disease control rating, WPM” value in experiment [4] is 8 (96-99). Moreover, the “Disease control rating, GDM” value in the experiment on Plasmopara viticola was 0 (0). The “Disease control rating, SBC” value in the experiment on Cercospora beticola is reported as 6 (75-89). In [5], the “Resistance Factor, Cladosporium cucumerinum” value came to 1.5. For the same compound, in the experiment on Pyricularia grisea, the “Disease control rating, RB” value was 8 (96-99). For the same compound, the “Disease control rating, AS” value with Venturia inaequalis was 0 (0). Besides, in the experiment on Pythium ultimum, the “Growth inhibition rating, PYTHUL” value was 5 (60-89). In experiment [6], the “Growth inhibition rating, PSDCHE” value is 0 (0).

As for `Clc1ccc(C(OB(c2ccccc2)c2ccccc2)(c2cncnc2)c2ccccc2Cl)cc1` (centres unmarked) [Compound 2, (o-Chlorophenyl)(p-chlorophenyl)(5-pyrimidinyl)methyl diphenylborinate], the “Disease control rating, WSN” value with Septoria nodorum is on record as 8 (96-99). Further, the “Disease control rating, TEB” value in the experiment with Alternaria solani is given as 8 (96-99). Moreover, the “Resistance Factor, Septoria nodorum” value in experiment [1] is listed as 1.3. Also, the “Resistance Factor, Ustilago avenae” value in experiment [2] is on record as 1.3. Besides, the “Disease control rating, PB” value in the experiment on Botrytis cinerea was 8 (96-99). Besides, in experiment [3], the “Growth inhibition rating, FUSOXC” value is 9 (100). Besides, in the experiment with Rhizoctonia solani, the “Growth inhibition rating, RHIZSO” value was 9 (100). Moreover, the “Disease control rating, WPM” value in experiment [4] is 8 (96-99). Further, in the experiment on Plasmopara viticola, the “Disease control rating, GDM” value is on record as 3 (30-44). In addition, the “Disease control rating, SBC” value with Cercospora beticola is reported as 9 (100). In addition, the “Disease control rating, RB” value in the experiment on Pyricularia grisea is 0 (0). The “Disease control rating, AS” value in the experiment with Venturia inaequalis is reported as 9 (100). Also, the “Growth inhibition rating, PYTHUL” value with Pythium ultimum is 7 (90-99). In addition, the “Growth inhibition rating, PSDCHE” value in experiment [6] is 0 (0).

On to `CC(C)(C)C(CCc1ccc(Cl)cc1)(Cn1cncn1)OB(c1ccccc1)c1ccccc1` (centres unmarked) [Compound 3, 1-Tert-butyl-3-(p-chlorophenyl)-1-(1H-1,2,4-triazol-1-ylmethyl)propyl diphenylborinate], for which the “Disease control rating, WSN” value with Septoria nodorum is recorded as 0 (0). In addition, the “Disease control rating, TEB” value in the experiment on Alternaria solani was 6 (75-89). Besides, in experiment [1], the “Resistance Factor, Septoria nodorum” value turned out to be 1.8. The “Resistance Factor, Ustilago avenae” value in [2] is 2.0. For the same compound, in the experiment with Botrytis cinerea, the “Disease control rating, PB” value is given as 6 (75-89). Also, the “Growth inhibition rating, FUSOXC” value in experiment [3] is recorded as 9 (100). The “Growth inhibition rating, RHIZSO” value in the experiment on Rhizoctonia solani is recorded as 9 (100). In addition, the “Disease control rating, WPM” value in experiment [4] is recorded as 8 (96-99). For the same compound, in the experiment with Plasmopara viticola, the “Disease control rating, GDM” value is on record as 9 (100). For the same compound, in the experiment with Cercospora beticola, the “Disease control rating, SBC” value is on record as 6 (75-89). Besides, the “Resistance Factor, Cladosporium cucumerinum” value in experiment [5] amounted to 1.7. For the same compound, the “Disease control rating, RB” value in the experiment with Pyricularia grisea is 6 (75-89). For the same compound, the “Disease control rating, AS” value in the experiment with Venturia inaequalis is listed as 8 (96-99). The “Growth inhibition rating, PYTHUL” value in the experiment on Pythium ultimum was 9 (100). In addition, in experiment [6], the “Growth inhibition rating, PSDCHE” value was 0 (0).

Regarding `CC(C)(C)C(CCc1ccc(Cl)cc1)(Cn1cncn1)OB(c1ccc(F)cc1)c1ccc(F)cc1` (centres unmarked) [Compound 4, 1-Tert-butyl-3-(p-chlorophenyl)-1-(1H-1,2,4-triazol-1-ylmethyl)propyl bis(p-fluorophenyl)borinate], the “Disease control rating, WSN” value in the experiment with Septoria nodorum was 2 (15-29). In the experiment on Alternaria solani, the “Disease control rating, TEB” value is reported as 6 (75-89). Besides, the “Resistance Factor, Septoria nodorum” value in [1] turned out to be 1.9. Further, the “Resistance Factor, Ustilago avenae” value in [2] stood at 2.3. Besides, in the experiment on Botrytis cinerea, the “Disease control rating, PB” value is on record as 7 (90-95). Further, the “Growth inhibition rating, FUSOXC” value in experiment [3] is reported as 9 (100). Further, the “Growth inhibition rating, RHIZSO” value with Rhizoctonia solani is reported as 9 (100). Also, the “Disease control rating, WPM” value in [4] is reported as 8 (96-99). For the same compound, the “Disease control rating, GDM” value in the experiment on Plasmopara viticola is 8 (96-99). Further, in the experiment with Cercospora beticola, the “Disease control rating, SBC” value is listed as 6 (75-89). Moreover, the “Resistance Factor, Cladosporium cucumerinum” value in experiment [5] came out at 1.3. The “Disease control rating, RB” value with Pyricularia grisea is reported as 6 (75-89). Besides, in the experiment on Venturia inaequalis, the “Disease control rating, AS” value is reported as 7 (90-95). Further, the “Growth inhibition rating, PYTHUL” value with Pythium ultimum was 9 (100). The “Growth inhibition rating, PSDCHE” value in experiment [6] was 0 (0).

For the compound `Fc1ccc(B(OC(c2ccc(Cl)cc2)(c2cncnc2)c2ccccc2Cl)c2ccc(F)cc2)cc1` (centres unmarked) [Compound 5, (o-Chlorophenyl)(p-chlorophenyl)(5-pyrimidinyl)methyl bis(p-fluorophenyl)borinate], the “Disease control rating, WSN” value in the experiment with Septoria nodorum is 7 (90-95). Moreover, the “Disease control rating, TEB” value with Alternaria solani was 3 (30-44). The “Disease control rating, PB” value in the experiment with Botrytis cinerea was 0 (0). The “Growth inhibition rating, FUSOXC” value in experiment [3] is listed as 0 (0). Further, the “Growth inhibition rating, RHIZSO” value in the experiment with Rhizoctonia solani was 7 (90-99). Besides, the “Disease control rating, WPM” value in experiment [4] is 8 (96-99). In the experiment on Plasmopara viticola, the “Disease control rating, GDM” value was 0 (0). The “Disease control rating, SBC” value in the experiment with Cercospora beticola is 7 (90-95). The “Disease control rating, RB” value with Pyricularia grisea was 0 (0). Besides, the “Disease control rating, AS” value with Venturia inaequalis is on record as 7 (90-95). For the same compound, in the experiment with Pythium ultimum, the “Growth inhibition rating, PYTHUL” value is 1 (1-29). Further, the “Growth inhibition rating, PSDCHE” value in [6] is on record as 0 (0).

In the case of `Clc1ccc(COC(Cn2ccnc2)c2ccc(Cl)cc2Cl)cc1` (centres unmarked) [Econazole nitrate, reference compound], in experiment [1], the “Resistance Factor, Septoria nodorum” value stood at 1.8. The “Resistance Factor, Ustilago avenae” value in experiment [2] is listed as 2.0. The “Resistance Factor, Cladosporium cucumerinum” value in experiment [5] was determined as 2.0.

In the case of `Clc1ccc(COC(Cn2ccnc2)c2ccc(Cl)cc2Cl)c(Cl)c1` (centres unmarked) [Miconazole nitrate, reference compound], the “Resistance Factor, Septoria nodorum” value in [1] was found to be 2.5. In experiment [2], the “Resistance Factor, Ustilago avenae” value was found to be 4.1. The “Resistance Factor, Cladosporium cucumerinum” value in [5] is on record as 2.4.
